Series [1] is described as follows: Compound solubility in water. Format: physicochemical.
For series [2], the target named is T1, glucocerebrosidase (Gcase) (Homo sapiens, UniProt P04062).
T1 sequence (P04062 40-536): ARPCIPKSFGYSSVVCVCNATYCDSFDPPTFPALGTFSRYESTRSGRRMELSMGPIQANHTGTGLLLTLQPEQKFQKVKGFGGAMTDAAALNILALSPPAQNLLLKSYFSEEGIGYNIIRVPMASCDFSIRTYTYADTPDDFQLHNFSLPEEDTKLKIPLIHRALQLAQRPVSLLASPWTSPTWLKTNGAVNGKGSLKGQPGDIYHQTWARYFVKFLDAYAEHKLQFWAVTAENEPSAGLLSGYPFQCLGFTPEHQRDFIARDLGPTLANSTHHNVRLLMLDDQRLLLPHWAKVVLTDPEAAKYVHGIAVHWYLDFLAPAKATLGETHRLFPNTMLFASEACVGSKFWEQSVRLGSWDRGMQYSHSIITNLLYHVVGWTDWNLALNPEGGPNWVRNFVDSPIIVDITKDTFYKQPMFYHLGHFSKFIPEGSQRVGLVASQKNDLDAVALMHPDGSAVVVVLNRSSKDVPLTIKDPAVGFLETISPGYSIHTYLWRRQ
Nature of the series: Glucocerebrosidase (Gcase) activation assay, 4-methylumbelliferyl-beta-D-glucopyranoside substrate, with saposin C. Format: biochemical. The method, then: The ability of exemplary compounds to activate glucocerebrosidase (Gcase) was measured.
A 484 μL aliquot of a 1.0 mg/mL solution of phosphatidylserine (PS) (Sigma P7769) in chloroform was evaporated under a stream of nitrogen for 1 hour. The lipid film was dissolved over 4 minutes of vigorous vortexing in 40 mL of 176 mM K2HPO4/50 mM citric acid (pH 4.7) containing 7.5 μL of triton X-100, resulting in a mixed micellar preparation with a composition of 0.32 mM triton and 0.37 mol % PS. 4-Methylumbelliferyl-beta-D-glucopyranoside (ACROS-337025000) was dissolved in the micellar solution to a final concentration of 2 mM for use as the reaction substrate.
Test compounds were diluted to the desired concentrations with dimethylsulfoxide (DMSO) from 10 mM stocks, and 0.41 μL of the DMSO compound mixture was added to 100 μL of micellar solution containing 10 nM GCase and 100 nM saposin C (Enzo ALX-201-262-C050). Pre-incubation was allowed to occur for 30 minutes at room temperature, after which the reaction was initiated by combining 25 μL of substrate solution with 25 μL of compound/GCase/saposin mixture. The reaction proceeded for 15 minutes at room temperature and was stopped by adding 150 μL of 1M glycine, pH 12.5. The endpoint of the reaction was monitored by measuring fluorescence intensity (excitation: 365 nm; emission: 440 nm) on a SpectraMax i3 instrument (Molecular Devices). Test compounds were screened at 1.0 and 0.1 μM final concentration, and subsequent 8-point dose response curves were obtained using 3-fold dilutions from a maximum final concentration of […].

Where [3] appears, read: 0.1 μM test compound, read-out: Percent Gcase Activation 0.1 μM Test Compound.
The mark [4] stands for this setting: 1 μM test compound, read-out: Percent Gcase Activation 1 μM Test Compound.
Setting [5] is: test compound at 0.1 μM, read-out: Percent Gcase Activation, 0.1 μM Test Compound.
The mark [6] stands for this setting: test compound at 1.0 μM, read-out: Percent Gcase Activation, 1 μM Test Compound.

Values after ≈ are worked out from the molar mass of the structure shown. Read-outs that look alike come from different tables or passages of the source.

Regarding `C#Cc1ccc(NC(=O)c2ncn3c(C4CCCC4)cc(C)nc23)cc1` [III-1], the concentration in solution in series [1] (solubility) came to 0.2 µg/mL (≈ 0.581 µM). Also, the activation at 0.1 µM in series [2] (setting [3]) was 10 to 20%. Moreover, the activation at 1 µM in series [2] (setting [4]) fell in the range of 30 to 60%.
For `C#Cc1cccc(C2(NC(=O)c3ncn4c(C)cc(C)nc34)CC2)c1` [III-2], in that order: 19.7 µg/mL (≈ 59.6 µM), less than 10% and 30 to 60%.
For `C#Cc1cccc(C(NC(=O)c2ncn3c(C)cc(C)nc23)C(F)(F)F)c1` (centres unmarked) [III-3], in that order: 2.2 µg/mL (≈ 5.91 µM), more than 20% and more than 60%.
Molecule `C#Cc1cccc([C@@H](NC(=O)c2ncn3c(C)cc(C)nc23)C(F)(F)F)c1` [III-4] displayed a solubility in series [1] of 6.1 µg/mL (≈ 16.4 µM). Further, the activation at 0.1 µM in series [2] (setting [3]) was more than 20%. Also, in series [2] (setting [4]), the activation at 1 µM is more than 60%.
Regarding `Cc1cn2cnc(C(=O)N[C@@H](C)C3CC3)c2nc1-c1ccc(F)cc1` [III-32], in series [2] (setting [3]), the activation at 0.1 µM is less than 10%. The activation at 1 µM in series [2] (setting [4]) is less than 30%.
For `Cc1c(-c2ccc(F)cc2)cnc2c(C(=O)N[C@@H](C)C3CC3)ncn12` [III-38], in that order: less than 10% and less than 30%.
For the molecule `Cc1nc2c(C(=O)N[C@@H](C)C3CC3)ncn2cc1-c1ccc(F)cc1` [III-39], in series [2] (setting [3]), the activation at 0.1 µM is less than 10%. The activation at 1 µM in series [2] (setting [4]) was less than 30%.
For `Cc1nc2c(C(=O)N[C@@H](C)C3CC3)ncn2c(C)c1-c1ccc(F)cc1` [III-40], in that order: less than 10% and less than 30%.
For `Cc1cc(Oc2ccc(F)cc2)nc2c(C(=O)NC(C)(C)C3CC3)ncn12` [III-77], in that order: less than 10% and 30 to 60%.
For the molecule `Cc1cc(-c2ccc(C#N)c(O)c2)nc2c(C(=O)NC(C3CC3)C(F)(F)F)ncn12` (centres unmarked) [III-159], in series [2] (setting [3]), the activation at 0.1 µM was less than 10%. Besides, the activation at 1 µM in series [2] (setting [4]) is less than 30%.
Regarding `Cc1cc(-c2cccnc2)nc2c(C(=O)NC(C)C(C)C3CC3)ncn12` (centres unmarked) [III-189], the activation at 0.1 µM in series [2] (setting [3]) was less than 10%. Moreover, in series [2] (setting [4]), the activation at 1 µM is 30 to 60%.
In the case of `Cc1cc(-c2cccc(OC(F)(F)F)n2)nc2c(C(=O)N[C@H](C)C3CC3)ncn12` [IV-12], in series [2] (setting [5]), the activation at 0.1 µM is less than 10%. For the same molecule, in series [2] (setting [6]), the activation at 1 µM was 30 to 60%.
For `Cc1cc(-c2ccc(C#N)o2)nc2c(C(=O)N[C@H](C3CC3)C(F)(F)F)ncn12` [IV-34], in that order: more than 20% and more than 60%.
Consider `Cc1cc(-c2ccc(C#N)o2)nc2c(C(=O)N[C@@H](C3CC3)C(F)(F)F)ncn12` [IV-35], for which the activation at 0.1 µM in series [2] (setting [5]) was more than 20%. In addition, in series [2] (setting [6]), the activation at 1 µM was more than 60%.
`Cc1cc(-c2nccs2)nc2c(C(=O)NC(C)(C)C)ncn12` [IV-54]: in series [2] (setting [5]), the activation at 0.1 µM was less than 10%. The activation at 1 µM in series [2] (setting [6]) was less than 30%.
In series [1] (in water), `COc1cccc(-c2cc(C)n3cnc(C(=O)NC(C4CC4)C(F)(F)F)c3n2)n1` (centres unmarked) [IV-91] displayed a solubility of 1.4 µg/mL (≈ 3.45 µM).
Consider `Cc1cc(C#N)c(-c2cc(C)n3cnc(C(=O)N[C@H](C4CC4)C(F)(F)F)c3n2)o1` [IV-93], for which, in series [2] (setting [5]), the activation at 0.1 µM is more than 20%. In addition, the activation at 1 µM in series [2] (setting [6]) is more than 60%.
With `Cc1cc(C#N)c(-c2cc(C)n3cnc(C(=O)N[C@@H](C4CC4)C(F)(F)F)c3n2)o1` [IV-94], the activation at 0.1 µM in series [2] (setting [5]) was more than 20%. In series [2] (setting [6]), the activation at 1 µM is more than 60%.
For `Cc1nscc1-c1cc(C)n2cnc(C(=O)N[C@H](C3CC3)C(F)(F)F)c2n1` [IV-96], in that order: 10 to 20% and more than 60%.
On to `Cc1nscc1-c1cc(C)n2cnc(C(=O)N[C@@H](C3CC3)C(F)(F)F)c2n1` [IV-97], for which the activation at 0.1 µM in series [2] (setting [5]) was in the range of 10 to 20%. Besides, the activation at 1 µM in series [2] (setting [6]) was more than 60%.
As for `Cc1sncc1-c1cc(C)n2cnc(C(=O)N[C@H](C3CC3)C(F)(F)F)c2n1` [IV-98], the activation at 0.1 µM in series [2] (setting [5]) is more than 20%. Besides, in series [2] (setting [6]), the activation at 1 µM is more than 60%.
For `Cc1sncc1-c1cc(C)n2cnc(C(=O)N[C@@H](C3CC3)C(F)(F)F)c2n1` [IV-99], in that order: more than 20% and more than 60%.
